In experiment [1] the target is T1, KRAS G12D (Homo sapiens, UniProt P01116, G12D).
T1 construct: aa1-188 KRAS WT, HRAS WT, NRAS WT, or KRAS containing the G12D
Description: HTRF nucleotide exchange assay, KRAS G12D. The class given is biochemical. The settings on record: HTRF nucleotide exchange assay (NEA), class symbols. For orientation: Time-resolved FRET reads energy transfer from a long-lived donor to a nearby acceptor.

Experiment [2] deals with T2, KRAS WT (Homo sapiens, UniProt P01116).
T2 construct: aa1-188 KRAS WT
Description: HTRF nucleotide exchange assay, KRAS WT. Type of experiment: biochemical. The settings on record: HTRF nucleotide exchange assay (NEA), class symbols.

T1 sequence (P01116 1-188 isoform P01116-2 G12D): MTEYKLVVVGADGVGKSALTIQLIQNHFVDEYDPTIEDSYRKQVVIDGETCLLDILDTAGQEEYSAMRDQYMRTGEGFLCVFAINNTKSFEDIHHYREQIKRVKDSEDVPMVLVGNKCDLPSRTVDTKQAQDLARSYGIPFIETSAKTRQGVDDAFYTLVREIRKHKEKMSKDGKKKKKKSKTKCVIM
T2 sequence (P01116 1-188 isoform P01116-2): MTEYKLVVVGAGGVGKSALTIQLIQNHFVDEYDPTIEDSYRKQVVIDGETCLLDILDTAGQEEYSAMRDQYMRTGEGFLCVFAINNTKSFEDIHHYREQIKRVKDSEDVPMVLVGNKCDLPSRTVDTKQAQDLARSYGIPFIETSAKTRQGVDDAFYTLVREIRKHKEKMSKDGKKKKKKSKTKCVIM

In general, IC50 refers to the midpoint of a concentration-inhibition curve. Lower therefore signals higher potency. `CCc1c(F)ccc2cc(O)cc(-c3c(F)c4nc(OCC5(CF)COC5)nc(N5CCOCC(C)(O)C5)c4c4cn(C)nc34)c12` (stereo not shown) [Example 163, 4-[4-(8-ethyl-7-fluoro-3-hydroxy-1-naphthyl)-5-fluoro-7-[[3-(fluoromethyl)oxetan-3-yl]methoxy]-2-methyl-pyrazolo[4,3-f]quinazolin-9-yl]-6-methyl-1,4-oxazepan-6-ol]: the IC50 in experiment [1] and in experiment [2] was at most 10 nM each time.
In the case of `CCc1c(F)ccc2cc(O)cc(-c3cc4nc(OC[C@@H]5C[C@@H](OC)CN5)nc(N5CCCn6nc(C(=O)N(C)C)cc6C5)c4c4cn(C)nc34)c12` [Example 51], the IC50 in experiment [1] was at most 10 nM; in experiment [2], 10 to 100 nM.
In the same order, the values of `CCc1c(F)ccc2cc(O)cc(-c3cc4nc(OC[C@@]56CCCN5C[C@H](F)C6)nc(N5CCCC6(CC(O)C6)C5)c4c4cn(C)nc34)c12` (stereo partly drawn) [Example 136, 6-[4-(8-ethyl-7-fluoro-3-hydroxy-1-naphthyl)-2-methyl-7-[[(2R,8S)-2-fluoro-1,2,3,5,6,7-hexahydropyrrolizin-8-yl]methoxy]pyrazolo[4,3-f]quinazolin-9-yl]-6-azaspiro[3.5]nonan-2-ol] are at most 10 nM and at most 10 nM.
In the same order, the values of `CCc1c(F)ccc2cc(O)cc(-c3cc4nc(OC[C@@]56CCCN5C[C@H](F)C6)nc(N5CCC(C)(O)CC5)c4c4cn(C)nc34)c12` [Example 118, 1-[4-(8-ethyl-7-fluoro-3-hydroxy-1-naphthyl)-2-methyl-7-[[(2R,8S)-2-fluoro-1,2,3,5,6,7-hexahydropyrrolizin-8-yl]methoxy]pyrazolo[4,3-f]quinazolin-9-yl]-4-methyl-piperidin-4-ol] are 100 to 10000 nM and 100 to 10000 nM.
For `Cc1cc(N)nc(-c2cc3nc(OC[C@@]45CCCN4C[C@H](F)C5)nc(N4CCCn5nc(C(=O)N(C)C)cc5C4)c3c3cn(C)nc23)c1C(F)(F)F` [Example 77, 5-[4-[6-amino-4-methyl-3-(trifluoromethyl)-2-pyridyl]-7-[[(2R,8S)-2-fluoro-1,2,3,5,6,7-hexahydropyrrolizin-8-cyl]methoxy]-2-methyl-pyrazolo[4,3-f]quinazolin-9-yl]-N,N-dimethyl-4,6,7,8-tetrahydropyrazolo[1,5-a][1,4]diazepine-2-carboxamide] the same measures were 100 to 10000 nM and 100 to 10000 nM.
For `CCc1c(F)ccc2cc(O)cc(-c3cc4nc(OC[C@@]56CCCN5C[C@H](F)C6)nc(N5CCOC6(COC6)C5)c4c4cn(C)nc34)c12` [Example 199, 4-[9-(2,5-dioxa-8-azaspiro[3.5]nonan-8-yl)-2-methyl-7-[[(2R,8S)-2-fluoro-1,2,3,5,6,7-hexahydropyrrolizin-8-yl]methoxy]pyrazolo[4,3-f]quinazolin-4-yl]-5-ethyl-6-fluoro-naphthalen-2-ol], the IC50 in experiment [1] and in experiment [2] was 10 to 100 nM in each case.
Consider `CCc1c(F)ccc2cc(O)cc(-c3c(F)c4nc(OCC5(C#N)CCOC5)nc(N5CCCn6nc(C(=O)N(C)C)cc6C5)c4c4cn(C)nc34)c12` (stereo not shown) [Example 207, 5-[7-[(3-cyanotetrahydrofuran-3-yl)methoxy]-4-(8-ethyl-7-fluoro-3-hydroxy-1-naphthyl)-5-fluoro-2-methyl-pyrazolo[4,3-f]quinazolin-9-yl]-N,N-dimethyl-4,6,7,8-tetrahydropyrazolo[1,5-a][1,4]diazepine-2-carboxamide], for which the IC50 was at most 10 nM in experiment [1] and 10 to 100 nM in experiment [2].
For `CN(C)C(=O)c1cc2n(n1)CCCN(c1nc(OC[C@@]34CCCN3C[C@H](F)C4)nc3cc(-c4cccc5sc(N)c(C#N)c45)c4nn(C)cc4c13)C2` [Example 76, 5-[4-(2-amino-3-cyano-benzothiophen-4-yl)-7-[[(2R,8S)-2-fluoro-1,2,3,5,6,7-hexahydropyrrolizin-8-yl]methoxy]-2-methyl-pyrazolo[4,3-f]quinazolin-9-yl]-N,N-dimethyl-4,6,7,8-tetrahydropyrazolo[1,5-a][1,4]diazepine-2-carboxamide] the same measures were at most 10 nM and 10 to 100 nM.
For the compound `CCc1c(F)ccc2cc(O)cc(-c3cc4nc(OC[C@@]56CCCN5C[C@H](F)C6)nc(N5CC6C(=O)NC(=O)C6C5)c4c4cn(C)nc34)c12` (stereo partly drawn) [Example 17, 5-[4-(8-ethyl-7-fluoro-3-hydroxy-1-naphthyl)-2-methyl-7-[[(2R,8S)-2-fluoro-1,2,3,5,6,7-hexahydropyrrolizin-8-yl]methoxy]pyrazolo[4,3-f]quinazolin-9-yl]-3a,4,6,6a-tetrahydropyrrolo[3,4-c]pyrrole-1,3-dione], the IC50 in experiment [1] and in experiment [2] was at most 10 nM each time.
With `CCc1c(F)ccc2cc(O)cc(-c3c(F)c4nc(OCC5(CO)CC5)nc(N5CCOCC(C)(O)C5)c4c4cn(C)nc34)c12` (stereo not shown) [Example 188, 4-[4-(8-ethyl-7-fluoro-3-hydroxy-1-naphthyl)-5-fluoro-7-[[1-(hydroxymethyl)cyclopropyl]methoxy]-2-methyl-pyrazolo[4,3-f]quinazolin-9-yl]-6-methyl-1,4-oxazepan-6-ol], the IC50 in experiment [1] and in experiment [2] was at most 10 nM in each case.
In the case of `CCc1c(F)ccc2cc(O)cc(-c3cc4nc(OCC5(CN6CCCC6)CC5)nc(N5CCCn6nc(C(=O)N(C)C)cc6C5)c4c4cn(C)nc34)c12` [Example 52], the IC50 was at most 10 nM in experiment [1] and 10 to 100 nM in experiment [2].
For `CCc1c(F)ccc2cc(O)cc(-c3cc4nc(O[C@@H](C)[C@@H]5CCCN5C)nc(N5CCCn6nc(C(=O)N(C)C)cc6C5)c4c4cn(C)nc34)c12` (racemic) [Example 54, 5-[4-(8-ethyl-7-fluoro-3-hydroxy-1-naphthyl)-2-methyl-7-[rac-(1S)-1-[rac-(2S)-1-methylpyrrolidin-2-yl]ethoxy]pyrazolo[4,3-f]quinazolin-9-yl]-N,N-dimethyl-4,6,7,8-tetrahydropyrazolo[1,5-a][1,4]diazepine-2-carboxamide] the same measures were 100 to 10000 nM and 100 to 10000 nM.
Regarding `CCc1c(F)ccc2cc(O)cc(-c3cc4nc(OC[C@@H]5CCN5)nc(N5CCCn6nc(C(=O)N(C)C)cc6C5)c4c4cn(C)nc34)c12` [Example 50, 5-[4-(8-ethyl-7-fluoro-3-hydroxy-1-naphthyl)-2-methyl-7-[[(2S)-azetidin-2-yl]methoxy]pyrazolo[4,3-f]quinazolin-9-yl]-N,N-dimethyl-4,6,7,8-tetrahydropyrazolo[1,5-a][1,4]diazepine-2-carboxamide], the IC50 in experiment [1] was at most 10 nM; in experiment [2], 10 to 100 nM.
As for `CCc1c(F)ccc2cc(O)cc(-c3c(F)c4nc(OC[C@@]56CCCN5C[C@H](F)C6)nc(N5CCC(C#N)CC5)c4c4cn(C)nc34)c12` [Example 111, 1-[4-(8-ethyl-7-fluoro-3-hydroxy-1-naphthyl)-5-fluoro-2-methyl-7-[[(2R,8S)-2-fluoro-1,2,3,5,6,7-hexahydropyrrolizin-8-yl]methoxy]pyrazolo[4,3-f]quinazolin-9-yl]piperidine-4-carbonitrile], the IC50 is 10 to 100 nM in experiment [1] and at most 10 nM in experiment [2].
In the same order, the values of `CCc1c(F)ccc2cc(O)cc(-c3c(C)c4nc(OC[C@]5(C)CCCN5C)nc(N5CCOCC(C)(O)C5)c4c4cn(C)nc34)c12` (stereo partly drawn) [Example 148, 4-[4-(8-ethyl-7-fluoro-3-hydroxy-1-naphthyl)-2,5-dimethyl-7-[[(2S)-1,2-dimethylpyrrolidin-2-yl]methoxy]pyrazolo[4,3-f]quinazolin-9-yl]-6-methyl-1,4-oxazepan-6-ol] are at most 10 nM and at most 10 nM.
In the same order, the values of `CCc1c(F)ccc2cc(O)cc(-c3c(F)c4nc(OCC56COC(COC)(C5)C6)nc(N5CCOCC(C)(O)C5)c4c4cn(C)nc34)c12` (stereo not shown) [Example 165, 4-[4-(8-ethyl-7-fluoro-3-hydroxy-1-naphthyl)-5-fluoro-7-[[1-(methoxymethyl)-2-oxabicyclo[2.1.1]hexan-4-yl]methoxy]-2-methyl-pyrazolo[4,3-f]quinazolin-9-yl]-6-methyl-1,4-oxazepan-6-ol] are at most 10 nM and 10 to 100 nM.
In the same order, the values of `C#CC1(O)CCCN(c2nc(OC[C@@]34CCCN3C[C@H](F)C4)nc3cc(-c4cc(O)cc5ccc(F)c(CC)c45)c4nn(C)cc4c23)C1` (stereo partly drawn) [Example 129, 1-[4-(8-ethyl-7-fluoro-3-hydroxy-1-naphthyl)-2-methyl-7-[[(2R,8S)-2-fluoro-1,2,3,5,6,7-hexahydropyrrolizin-8-yl]methoxy]pyrazolo[4,3-f]quinazolin-9-yl]-3-ethynyl-piperidin-3-ol] are 10 to 100 nM and 10 to 100 nM.
Turning to `CCc1c(F)ccc2cc(O)cc(-c3cc4nc(OC[C@@]56CCCN5C[C@H](F)C6)nc(N5CCCn6nc(C(=O)N(C)C)c(F)c6C5)c4c4cn(C)nc34)c12` [Example 103], the IC50 in experiment [1] and in experiment [2] was at most 10 nM throughout.
For `CCc1c(F)ccc2cc(O)cc(-c3cc4nc(OC[C@@]56CCCN5C[C@H](F)C6)nc(N5CCCNCC5)c4c4cn(C)nc34)c12` [Example 20, 4-[9-(1,4-diazepan-1-yl)-2-methyl-7-[[(2R,8S)-2-fluoro-1,2,3,5,6,7-hexahydropyrrolizin-8-yl]methoxy]pyrazolo[4,3-f]quinazolin-4-yl]-5-ethyl-6-fluoro-naphthalen-2-ol], the IC50 in experiment [1] was at most 10 nM; in experiment [2], 10 to 100 nM.
For `CCc1c(F)ccc2cc(O)cc(-c3c(F)c4nc(OCC5(CN(CC)CC)CC5)nc(N5CCOCC(C)(O)C5)c4c4cn(C)nc34)c12` (stereo not shown) [Example 166, -[7-[[1-(diethylaminomethyl)cyclopropyl]methoxy]-4-[8-ethyl-7-fluoro-3-(methoxymethoxy)-1-naphthyl]-5-fluoro-2-methyl-pyrazolo[4,3-f]quinazolin-9-yl]-6-methyl-1,4-oxazepan-6-ol] the same measures were at most 10 nM and at most 10 nM.
